Test results: the NIST ThermoML archive (doi:10.1021/je700145e)

Details: Liquid

CCCCC(C)O (configuration not stated) [2-hexanol]
Details	mass density [kg/m3]
313.13 K, 1010 kPa	799.26
313.13 K, 2006 kPa	800.05
313.13 K, 2999 kPa	800.83
313.13 K, 4008 kPa	801.59
313.13 K, 4999 kPa	802.35
313.13 K, 5986 kPa	803.12
313.13 K, 7000 kPa	803.86
313.13 K, 8010 kPa	804.64
313.13 K, 9026 kPa	805.38
313.13 K, 10004 kPa	806.09
313.13 K, 11005 kPa	806.84
313.13 K, 12001 kPa	807.56
313.13 K, 13010 kPa	808.28
313.13 K, 14002 kPa	808.98
313.13 K, 14998 kPa	809.67
313.13 K, 16001 kPa	810.39
313.13 K, 17006 kPa	811.08
313.13 K, 18000 kPa	811.7
313.13 K, 19005 kPa	812.39
313.13 K, 20015 kPa	813.1
313.13 K, 21029 kPa	813.74
313.13 K, 22004 kPa	814.4
323.09 K, 1037 kPa	791
323.09 K, 2000 kPa	791.79
323.09 K, 3010 kPa	792.63
323.09 K, 4029 kPa	793.48
323.09 K, 5004 kPa	794.27
323.09 K, 6020 kPa	795.1
323.09 K, 7007 kPa	795.84
323.09 K, 8009 kPa	796.68
323.09 K, 9017 kPa	797.48
323.09 K, 10003 kPa	798.25
323.09 K, 11001 kPa	799
323.09 K, 12000 kPa	799.77
323.09 K, 13021 kPa	800.56
323.09 K, 14001 kPa	801.3
323.09 K, 15002 kPa	802
323.09 K, 16000 kPa	802.74
323.09 K, 17004 kPa	803.48
323.09 K, 18008 kPa	804.21
323.09 K, 19001 kPa	804.9
323.09 K, 20011 kPa	805.62
323.09 K, 21003 kPa	806.31
323.09 K, 22004 kPa	807.01
333.04 K, 1055 kPa	782.56
333.04 K, 2007 kPa	783.43
333.04 K, 3005 kPa	784.28
333.04 K, 4007 kPa	785.21
333.04 K, 5015 kPa	786.06
333.04 K, 6009 kPa	786.93
333.04 K, 7006 kPa	787.77
333.04 K, 7998 kPa	788.61
333.04 K, 9006 kPa	789.47
333.04 K, 10004 kPa	790.32
333.04 K, 11007 kPa	791.11
333.04 K, 12012 kPa	791.93
333.04 K, 13003 kPa	792.72
333.04 K, 14008 kPa	793.51
333.04 K, 15005 kPa	794.3
333.04 K, 16001 kPa	795.06
333.04 K, 17006 kPa	795.85
333.04 K, 18010 kPa	796.61
333.04 K, 19002 kPa	797.35
333.04 K, 20000 kPa	798.08
333.04 K, 21000 kPa	798.82
333.04 K, 22004 kPa	799.56
342.98 K, 1032 kPa	774.05
342.98 K, 2015 kPa	775.01
342.98 K, 3012 kPa	775.95
342.98 K, 4017 kPa	776.87
342.98 K, 5013 kPa	777.79
342.98 K, 6012 kPa	778.72
342.98 K, 7025 kPa	779.62
342.98 K, 8000 kPa	780.47
342.98 K, 9000 kPa	781.35
342.98 K, 9996 kPa	782.25
342.98 K, 11020 kPa	783.12
342.98 K, 11999 kPa	783.92
342.98 K, 12996 kPa	784.76
342.98 K, 14007 kPa	785.6
342.98 K, 15003 kPa	786.41
342.98 K, 16005 kPa	787.17
342.98 K, 17002 kPa	787.98
342.98 K, 18010 kPa	788.76
342.98 K, 19005 kPa	789.49
342.98 K, 20010 kPa	790.27
342.98 K, 21006 kPa	791
342.98 K, 22005 kPa	791.75
352.86 K, 1053 kPa	765.06
352.86 K, 2014 kPa	766.05
352.86 K, 3019 kPa	767.09
352.86 K, 4033 kPa	768.08
352.86 K, 4996 kPa	769.01
352.86 K, 6006 kPa	770.06
352.86 K, 7013 kPa	771.02
352.86 K, 8004 kPa	771.95
352.86 K, 9035 kPa	772.93
352.86 K, 10009 kPa	773.84
352.86 K, 11007 kPa	774.75
352.86 K, 12007 kPa	775.66
352.86 K, 12999 kPa	776.54
352.86 K, 14012 kPa	777.47
352.86 K, 15010 kPa	778.33
352.86 K, 16003 kPa	779.21
352.86 K, 17002 kPa	780.07
352.86 K, 18017 kPa	780.92
352.86 K, 19005 kPa	781.75
352.86 K, 20014 kPa	782.58
352.86 K, 21013 kPa	783.39
352.86 K, 22010 kPa	784.18
362.73 K, 1075 kPa	754.97
362.73 K, 2006 kPa	756.02
362.73 K, 3018 kPa	757.16
362.73 K, 4034 kPa	758.26
362.73 K, 5016 kPa	759.29
362.73 K, 6066 kPa	760.41
362.73 K, 6998 kPa	761.37
362.73 K, 8041 kPa	762.44
362.73 K, 9014 kPa	763.43
362.73 K, 10001 kPa	764.37
362.73 K, 11026 kPa	765.39
362.73 K, 12000 kPa	766.35
362.73 K, 13010 kPa	767.31
362.73 K, 13999 kPa	768.28
362.73 K, 15006 kPa	769.21
362.73 K, 16006 kPa	770.12
362.73 K, 17005 kPa	771.02
362.73 K, 18000 kPa	771.92
362.73 K, 19003 kPa	772.82
362.73 K, 20017 kPa	773.7
362.73 K, 21006 kPa	774.56
362.73 K, 22010 kPa	775.42
